Series [1] has as its target T1, human mineralocorticoid receptor (hMR), GAL4-hMR receptor (Homo sapiens, UniProt P08235).
T1 construct: expressed in transfected cells; host or cells: HEK293
T1 sequence (P08235 726-964 limits assumed): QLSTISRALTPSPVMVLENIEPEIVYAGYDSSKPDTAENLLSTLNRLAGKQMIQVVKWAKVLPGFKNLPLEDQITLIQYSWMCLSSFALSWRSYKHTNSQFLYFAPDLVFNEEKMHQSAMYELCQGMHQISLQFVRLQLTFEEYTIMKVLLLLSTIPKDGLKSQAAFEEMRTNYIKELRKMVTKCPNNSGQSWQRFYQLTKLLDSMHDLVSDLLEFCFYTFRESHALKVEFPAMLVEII
In words: GAL4-hMR-LBD luciferase reporter assay in HEK293 cells with 1 nM aldosterone (mineralocorticoid receptor antagonistic action). The class given is cell-based. The conditions noted are these: for IC50: concentration which shows Imax/2, HEK293, GAL4-hMR-LBD, luciferase, with 1 nM aldosterone, read-out: ICmax50; for Imax: maximum value, DMSO control = 0%, 1 nM aldosterone control = 100%, HEK293 luciferase reporter. The procedure:
A plasmid pM-hMR-LBD expressing GAL4-hMR receptor, which has a ligand binding domain (LBD, corresponds to approximately 308 amino acids at the carboxy terminus) of human mineralocorticoid receptor (hMR, NM_000901) bonded to a DNA binding domain of yeast transcription factor GAL4 (corresponding to 147 amino acids at the amino terminus), was prepared. Reporter assay was conducted by using a reporter plasmid (such as STRATAGENE CLONING SYSTEMS, pFR-Luc) including a luciferase gene, having a sequence (UAS sequence) which binds to the DNA binding domain of GAL4.
The plasmid pM-hMR-LBD and the reporter plasmid as obtained above were gene transferred into renal cell line HEK293 of human fetus by lipofection. On the next day, cells were collected by trypsin treatment, and were dispensed with DMEM culture medium containing 5% of FBS treated by activated charcoal, to a white 96-well plate (Costar) with the amount of 95 microliter per well.
The Test Compounds were used by dissolving them in dimethyl sulfoxide at a predetermined concentration, and the test compounds suitably diluted with culture media were added to the cells on the white 96-well plate so that the final concentration becomes 0.1%. When adding the Test Compounds, they were accompanied with 1 nM aldosterone. The well group of Control group 1 was added with dimethyl sulfoxide, and the well group of Control group 2 was added with 1 nM aldosterone. After addition, cultivation was carried out overnight.
On the next day, the culture media was removed, and then luciferase substrate (Wako Pure Chemical Industries, Ltd.) was prepared in accordance with the attached document and were added to each well by 50 microliters. Stirring was conducted for approximately 30 minutes, and the amount of luminescence was measured for each well by using Analyst (Molecular Devices), to obtain luciferase activity. A graph which plots relative luciferase activity values, when the luciferase activity value of Control group 1 was taken as 0% and the luciferase activity value of Control group 2 was taken as 100%, for each of the amount of the test compound addition group was made.

Series [2] can be described thus: Plasma concentration after intragastric administration to cynomolgus monkey (LC-MS/MS). The class given is in vivo. The conditions noted are these: male cynomolgus monkey, fasted, 3 mg/kg intragastric in 0.5% MC; for AUC: Area under the plasma concentration versus time curve: blood up to 48 h, noncompartment model; for Cmax: po, plasma, read-out: Cmax: Maximum concentration. How it is done:
Cynomolgus monkey (male) was used, and was fasted from the day before the administration of the Test Compound.
Administration samples were prepared by adding 0.5% MC (methyl cellulose) solution to the Test Compound, so that the dose becomes 3 mg/2 mL/kg. Each of the administration samples was administered intragastrically to the cynomolgus monkey by using a tube. After the samples were administered, approximately 5 mL of 0.5% MC was administered. For each of the administration samples, a group of two cynomolgus monkeys was administered.
With respect to collection of blood, it was conducted by collecting approximately 0.5 mL of blood from femoral vein using a glass syringe treated with heparin, before administration, and 30 minutes, 1, 2, 4, 6, 8, 24 and 48 hours after administration. Blood was centrifuged (1,700×g, 15 min, 4° C.) to obtain plasma. Plasma was stored in a freezer (−20° C.) until pretreatment.
Preparation of standard solution and internal standard (“IS”) solution: Each of the Test Compounds was dissolved in DMSO (dimethyl sulfoxide) to prepare a solution of 10 mM each. Each of the compound solution was diluted with acetonitrile, and thus standard solution was prepared. Further, niflumic acid (Wako Pure Chemical Industries, Ltd.) was dissolved in DMSO at the concentration of 2 mM, followed by dilution with acetonitrile to prepare an IS solution of 2 μM.
Pretreatment of plasma samples: 20 μL of plasma sample was collected, and then 25 μL of purified water, 100 μL of acetonitrile, and 100 μL of methanol was added. For the preparation of a calibration curve, 25 μL of purified water, 20 μL of each of the standard solutions (acetonitrile solution), 80 μL of acetonitrile, and 100 μL of methanol were added to 20 μL of blank plasma. 40 μL of the acetonitrile solution of IS was added to all of the samples, and then the samples were stirred, filtered by suction using Captiva filter plate (Varian, Inc.), and then the filtrate was used as the sample for LC-MS/MS analysis.
Quantitative Determination of Test Compound: Concentration in plasma was analyzed by LC-MS/MS method for each Test Compound.
[HPLC Analysis Conditions]
• HPLC: WATERS 2795 (Waters Corporation); • Column: CAPCELL PAK C8, 2.0 mm I.D.×50 mm, 5 μm (Shiseido Co., Ltd.) • Mobile Phase: A=5 mM ammonium acetate aqueous solution, B=acetonitrile [MS/MS Analysis Conditions] • MS: Quattro micro API (Waters Corporation) • Ionization Method: Electrospray Ionization (“ESI”) • Ionization Mode: Positive • Detection Mode: MRM • Analysis: Pharmacokinetic parameter was calculated from concentration of each of the drugs in plasma, by using WinNonlin Professional (Ver. 4.0.1, Pharsight Corporation). Here, noncompartment model was used as the model for parameter calculation. (Results)

Where only a bound is given, the exact number is not on record here.

As to `Cc1c(C(=O)Nc2ccc(S(C)(=O)=O)cc2)cn([C@H](C)[C@H](C)O)c1-c1ccc(F)cc1C(F)(F)F` [Example 2, 5-[4-Fluoro-2-(trifluoromethyl)phenyl]-1-[(1R,2S)-2-hydroxy-1-methylpropyl]-4-methyl-N-[4-(methylsulfonyl)phenyl]-1H-pyrrole-3-carboxamide], in series [1], the IC50 worked out at 6.2 nM and the Imax was determined as 88%.

With `Cc1c(C(=O)Nc2ccc(S(C)(=O)=O)cc2)cn([C@H](C)[C@H](C)O)c1-c1ccccc1C(F)(F)F` [Example 1, 1-[(1R,2S)-2-Hydroxy-1-methylpropyl]-4-methyl-N-[4-(methylsulfonyl)phenyl]-5-[2-(trifluoromethyl)phenyl]-1H-pyrrole-3-carboxamide], in series [1], the IC50 turned out to be 6.6 nM and the Imax was found to be 115%.

Regarding `Cc1c(C(=O)Nc2ccc(S(C)(=O)=O)cc2)cn([C@H](C)[C@H](C)O)c1-c1ccc(F)cc1Cl` (single isomer, unassigned) [Example 4-isomer A], in series [1], the IC50 was found to be 11 nM and the Imax is given as 103%.

Turning to `Cc1c(C(=O)Nc2ccc(S(C)(=O)=O)cc2)cn([C@H](C)[C@H](C)O)c1-c1ccc(Cl)cc1C(F)(F)F` (atropisomer, axis not shown) [Example 3, 5-[4-Chloro-2-(trifluoromethyl)phenyl]-1-[(1R,2S)-2-hydroxy-1-methylpropyl]-4-methyl-N-[4-(methylsulfonyl)phenyl]-1H-pyrrole-3-carboxamide], in series [1], the IC50 is 6.7 nM and the Imax is given as 95%.

Take `Cc1c(C(=O)Nc2ccc(S(C)(=O)=O)cc2)cn([C@H](C)[C@H](C)O)c1-c1ccccc1C(F)(F)F` (single isomer, unassigned) [Example 1-isomer A]: in series [1], the IC50 worked out at 2.9 nM and the Imax came to 117%.

Take `Cc1c(C(=O)Nc2ccc(S(C)(=O)=O)cc2)cn(CCO)c1-c1ccccc1C(F)(F)F` (racemic) [Comparative compound, 1-(2-hydroxyethyl)-4-methyl-N-[4-(methylsulfonyl)phenyl]-5-[2-(trifluoromethyl)phenyl]-1H-pyrrole-3-carboxamide, reference compound]: in series [1], the IC50 was 5.3 nM and the Imax turned out to be 105%. In addition, in series [2], the “AUC: Area under the plasma concentration versus time curve” value came to 4090 ng·h/mL and the Cmax is 230 ng/mL.

As for `Cc1c(C(=O)Nc2ccc(S(C)(=O)=O)cc2)cn([C@H](C)[C@H](C)O)c1-c1ccccc1C(F)(F)F` (single isomer, unassigned) [Example 1-isomer B], the IC50 in series [1] is above 1000 nM.

For the compound `Cc1c(C(=O)Nc2ccc(S(C)(=O)=O)cc2)cn([C@H](C)[C@H](C)O)c1-c1ccc(Cl)cc1C(F)(F)F` (single isomer, unassigned) [Example 3-isomer A], in series [1], the IC50 stood at 4.6 nM and the Imax worked out at 108%. In addition, in series [2], the “AUC: Area under the plasma concentration versus time curve” value amounted to 42490 ng·h/mL and the Cmax came out at 1440 ng/mL.

For the compound `Cc1c(C(=O)Nc2ccc(S(C)(=O)=O)cc2)cn([C@H](C)[C@H](C)O)c1-c1ccc(Cl)cc1C(F)(F)F` (single isomer, unassigned) [Example 3-isomer B], in series [1], the IC50 was above 1000 nM.

Regarding `Cc1c(C(=O)Nc2ccc(S(C)(=O)=O)cc2)cn([C@H](C)[C@H](C)O)c1-c1ccc(F)cc1Cl` [Example 4, 5-(2-Chloro-4-fluorophenyl)-1-[(1R,2S)-2-hydroxy-1-methylpropyl]-4-methyl-N-[4-(methylsulfonyl)phenyl]-1H-pyrrole-3-carboxamide], in series [1], the IC50 came out at 10 nM and the Imax is 106%.

In the case of `Cc1c(C(=O)Nc2ccc(S(C)(=O)=O)cc2)cn([C@H](C)[C@H](C)O)c1-c1ccc(F)cc1C(F)(F)F` (single isomer, unassigned) [Example 2-isomer B], the IC50 in series [1] was above 1000 nM.

For the compound `Cc1c(C(=O)Nc2ccc(S(C)(=O)=O)cc2)cn([C@H](C)[C@H](C)O)c1-c1ccc(F)cc1Cl` (single isomer, unassigned) [Example 4-isomer B], the IC50 in series [1] is above 1000 nM.

On to `Cc1c(C(=O)Nc2ccc(S(C)(=O)=O)cc2)cn([C@H](C)[C@H](C)O)c1-c1ccc(F)cc1C(F)(F)F` (single isomer, unassigned) [Example 2-isomer A], for which, in series [1], the IC50 came to 3.8 nM and the Imax is given as 103%. Also, in series [2], the “AUC: Area under the plasma concentration versus time curve” value worked out at 30320 ng·h/mL and the Cmax was 1280 ng/mL.

Values taken from US8487117B2, “Atropisomers of (hydroxyalkyl) pyrrole derivatives” (Exelixis, Inc., priority 2008, dated 2013).
